From ChEMBL document CHEMBL1201862, “PubChem BioAssay data set” (2004)
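In this assay, cells in 96-well plates receive the compound at five concentrations for 48 hours. Endpoints are linearly interpolated between the surrounding concentrations. GI50 is the concentration that inhibits growth by half.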 Activity calls are given as the source filed them. No stated cut-off is given here; in the data, active = GI50 up to about 1.1 µM and inactive = higher.

Assays:
Assay in all cases: NCI-60 cell line screen, 48 h
OVCAR-4 = tested on: OVCAR-4
SW-620 = tested on: SW-620
786-0 = tested on: 786-0
MDA-MB-231 = tested on: MDA-MB-231
EKVX = tested on: EKVX
SN12C = tested on: SN12C
HCT-116 = tested on: HCT-116
TK-10 = tested on: TK-10
HOP-92 = tested on: HOP-92
HOP-62 = tested on: HOP-62
Hs-578T = tested on: Hs-578T
HCC 2998 = tested on: HCC 2998
UO-31 = tested on: UO-31
A549 = tested on: A549
OVCAR-5 = tested on: OVCAR-5
NCI-H460 = tested on: NCI-H460
MCF7 = tested on: MCF7
MDA-N = tested on: MDA-N
SK-MEL-28 = tested on: SK-MEL-28
IGROV-1 = tested on: IGROV-1
LOX IMVI = tested on: LOX IMVI
M14 = tested on: M14
COLO 205 = tested on: COLO 205
HL-60 = tested on: HL-60
A498 = tested on: A498
K562 = tested on: K562
UACC-257 = tested on: UACC-257
ACHN = tested on: ACHN
CCRF-CEM = tested on: CCRF-CEM
HT-29 = tested on: HT-29
RPMI-8226 = tested on: RPMI-8226
SF-295 = tested on: SF-295
SF-539 = tested on: SF-539
BT-549 = tested on: BT-549
NCI/ADR-RES = tested on: NCI/ADR-RES
PC-3 = tested on: PC-3
KM12 = tested on: KM12
OVCAR-8 = tested on: OVCAR-8
SK-MEL-5 = tested on: SK-MEL-5
MDA-MB-435 = tested on: MDA-MB-435
HCT-15 = tested on: HCT-15
SNB-19 = tested on: SNB-19
CAKI-1 = tested on: CAKI-1
NCI-H23 = tested on: NCI-H23
SK-OV-3 = tested on: SK-OV-3
SF-268 = tested on: SF-268
SR = tested on: SR
U-251 = tested on: U-251
NCI-H522 = tested on: NCI-H522
MOLT-4 = tested on: MOLT-4
OVCAR-3 = tested on: OVCAR-3
SK-MEL-2 = tested on: SK-MEL-2
SNB-75 = tested on: SNB-75
UACC-62 = tested on: UACC-62
NCI-H226 = tested on: NCI-H226
DU-145 = tested on: DU-145

SMILES: COC(=O)[C@H](COC(C)(C)C)NC(=O)N[C@H](C)c1ccccc1
- GI50 (OVCAR-4): > 100 µM (inactive)
- GI50 (SW-620): > 100 µM (inactive)
- GI50 (786-0): > 100 µM (inactive)
- GI50 (MDA-MB-231): > 100 µM (inactive)
- GI50 (EKVX): > 100 µM (inactive)
- GI50 (SN12C): > 100 µM (inactive)
- GI50 (HCT-116): > 100 µM (inactive)
- GI50 (TK-10): > 100 µM (inactive)
- GI50 (HOP-92): > 100 µM (inactive)
- GI50 (HOP-62): > 100 µM (inactive)
- GI50 (Hs-578T): > 100 µM (inactive)
- GI50 (HCC 2998): > 100 µM (inactive)
- GI50 (UO-31): > 100 µM (inactive)
- GI50 (A549): > 100 µM (inactive)
- GI50 (OVCAR-5): > 100 µM (inactive)
- GI50 (NCI-H460): > 100 µM (inactive)
- GI50 (MCF7): > 100 µM (inactive)
- GI50 (MDA-N): > 100 µM (inactive)
- GI50 (SK-MEL-28): > 100 µM (inactive)
- GI50 (IGROV-1): > 100 µM (inactive)
- GI50 (LOX IMVI): > 100 µM (inactive)
- GI50 (M14): > 100 µM (inactive)
- GI50 (COLO 205): > 100 µM (inactive)
- GI50 (HL-60): > 100 µM (inactive)
- GI50 (A498): > 100 µM (inactive)
- GI50 (K562): > 100 µM (inactive)
- GI50 (UACC-257): > 100 µM (inactive)
- GI50 (ACHN): > 100 µM (inactive)
- GI50 (CCRF-CEM): > 100 µM (inactive)
- GI50 (HT-29): > 100 µM (inactive)
- GI50 (RPMI-8226): > 100 µM (inactive)
- GI50 (SF-295): > 100 µM (inactive)
- GI50 (SF-539): > 100 µM (inactive)
- GI50 (BT-549): > 100 µM (inactive)
- GI50 (NCI/ADR-RES): > 100 µM (inactive)
- GI50 (PC-3): > 100 µM (inactive)
- GI50 (KM12): > 100 µM (inactive)
- GI50 (OVCAR-8): > 100 µM (inactive)
- GI50 (SK-MEL-5): > 100 µM (inactive)
- GI50 (MDA-MB-435): > 100 µM (inactive)
- GI50 (HCT-15): > 100 µM
- GI50 (SNB-19): > 100 µM (inactive)
- GI50 (CAKI-1): > 100 µM (inactive)
- GI50 (NCI-H23): > 100 µM (inactive)
- GI50 (SK-OV-3): > 100 µM (inactive)
- GI50 (SF-268): > 100 µM (inactive)
- GI50 (SR): > 100 µM (inactive)
- GI50 (U-251): > 100 µM (inactive)
- GI50 (NCI-H522): > 100 µM (inactive)
- GI50 (MOLT-4): > 100 µM (inactive)
- GI50 (OVCAR-3): > 100 µM (inactive)
- GI50 (SK-MEL-2): > 100 µM (inactive)
- GI50 (SNB-75): > 100 µM (inactive)
- GI50 (UACC-62): > 100 µM (inactive)
- GI50 (NCI-H226): > 100 µM (inactive)
- GI50 (DU-145): > 100 µM (inactive)
